This assay deals with PI3Kβ (Homo sapiens (Human), UniProt P42338). Nature of the assay: TR-FRET enzymatic activity assay, PI3Kβ. It is filed as biochemical. The settings on record: 2× Km ATP, 2 μM PIP2, 30 minutes at 25° C., read-out: IC50-PIP-Beta. As for the experimental part: The compounds of formula (I) were characterized for their enzymatic activity against the PI3K isoforms. The activities were measured using a time-resolved fluorescence resonance energy transfer (TR-FRET) assay. TR-FRET monitored the formation of 3,4,5-inositol triphosphate molecule that competed with fluorescently labeled PIPS for binding to the GRP-1 pleckstrin homology domain protein.
Sequence of PI3Kβ (P42338 whole entry, the tested form may be a part, canonical isoform): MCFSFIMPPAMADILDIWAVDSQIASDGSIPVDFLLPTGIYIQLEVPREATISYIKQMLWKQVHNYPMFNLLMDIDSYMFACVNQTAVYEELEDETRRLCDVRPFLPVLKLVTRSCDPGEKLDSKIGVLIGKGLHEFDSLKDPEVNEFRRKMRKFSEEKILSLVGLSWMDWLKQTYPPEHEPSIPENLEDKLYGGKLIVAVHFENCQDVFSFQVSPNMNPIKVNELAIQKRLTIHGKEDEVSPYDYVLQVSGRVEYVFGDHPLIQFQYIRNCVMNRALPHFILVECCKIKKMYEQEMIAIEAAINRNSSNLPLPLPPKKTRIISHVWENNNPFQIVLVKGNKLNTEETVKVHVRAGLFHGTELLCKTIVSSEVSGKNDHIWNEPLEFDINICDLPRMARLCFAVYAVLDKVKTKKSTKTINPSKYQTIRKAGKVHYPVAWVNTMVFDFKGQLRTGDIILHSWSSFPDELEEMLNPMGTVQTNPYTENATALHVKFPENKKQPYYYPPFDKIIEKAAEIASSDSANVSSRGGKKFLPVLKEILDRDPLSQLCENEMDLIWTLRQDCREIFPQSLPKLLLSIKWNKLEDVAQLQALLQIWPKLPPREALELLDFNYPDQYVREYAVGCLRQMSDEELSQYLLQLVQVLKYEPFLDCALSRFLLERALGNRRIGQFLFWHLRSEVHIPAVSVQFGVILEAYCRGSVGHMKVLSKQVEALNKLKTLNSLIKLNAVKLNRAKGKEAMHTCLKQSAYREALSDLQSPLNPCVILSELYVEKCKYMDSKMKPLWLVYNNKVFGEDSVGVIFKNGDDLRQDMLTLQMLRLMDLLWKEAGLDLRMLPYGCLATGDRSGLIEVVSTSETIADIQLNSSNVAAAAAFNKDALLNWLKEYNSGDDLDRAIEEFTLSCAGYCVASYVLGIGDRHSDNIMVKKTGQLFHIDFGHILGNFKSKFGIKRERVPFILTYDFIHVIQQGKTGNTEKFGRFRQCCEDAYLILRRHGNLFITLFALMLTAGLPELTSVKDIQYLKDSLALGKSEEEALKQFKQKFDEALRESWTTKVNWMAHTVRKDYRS
Sequence of PI3Kβ (P27986 whole entry partner, the tested form may be a part, canonical isoform): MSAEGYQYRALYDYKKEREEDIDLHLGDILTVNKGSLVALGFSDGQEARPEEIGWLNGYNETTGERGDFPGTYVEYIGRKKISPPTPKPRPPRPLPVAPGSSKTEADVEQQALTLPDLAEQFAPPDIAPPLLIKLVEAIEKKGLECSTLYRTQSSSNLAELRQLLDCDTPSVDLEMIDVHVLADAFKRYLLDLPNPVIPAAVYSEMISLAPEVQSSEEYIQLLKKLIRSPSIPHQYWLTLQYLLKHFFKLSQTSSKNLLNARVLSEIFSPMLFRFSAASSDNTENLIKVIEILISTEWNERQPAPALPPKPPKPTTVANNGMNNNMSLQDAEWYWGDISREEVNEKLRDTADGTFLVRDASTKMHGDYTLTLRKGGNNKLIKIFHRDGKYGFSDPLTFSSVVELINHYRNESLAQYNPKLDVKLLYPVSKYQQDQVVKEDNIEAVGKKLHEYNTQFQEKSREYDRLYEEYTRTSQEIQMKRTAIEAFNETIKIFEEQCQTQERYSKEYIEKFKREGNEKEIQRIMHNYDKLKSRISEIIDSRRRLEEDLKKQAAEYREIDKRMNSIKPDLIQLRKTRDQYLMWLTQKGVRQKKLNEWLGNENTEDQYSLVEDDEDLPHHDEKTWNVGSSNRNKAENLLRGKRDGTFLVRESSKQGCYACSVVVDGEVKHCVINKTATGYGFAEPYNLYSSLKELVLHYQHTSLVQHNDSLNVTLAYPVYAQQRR
Class I PI3K isoforms were expressed and purified as heterodimeric recombinant proteins. All assay reagents and buffers for the TR-FRET assay were purchased from Millipore. […] The compounds were added to the assay solution and incubated for 30 minutes at 25° C.

The IC50 is the concentration that inhibits the measured activity by half.

Regarding `Cc1nc2c(-c3nnc[nH]3)cc(-c3ccnc(C#N)c3)cc2n1-c1ccnc2c(F)cccc12` (single isomer, unassigned) [Example 127, 4-(1-(8-fluoroquinolin-4-yl)-2-methyl-4-(4H-1,2,4-triazol-3-yl)-1H-benzo[d]imidazol-6-yl)picolinonitrile], the half-inhibitory concentration (IC50) turned out to be 9 nM.
Take `Clc1cccc2c(-n3c(C4COC4)nc4c(-c5nnc[nH]5)cc(-c5ccncc5)cc43)ccnc12` [Example 36, 8-chloro-4-[2-(oxetan-3-yl)-6-pyridin-4-yl-4-(4H-1,2,4-triazol-3-yl)benzimidazol-1-yl]quinoline]: the half-inhibitory concentration (IC50) came out at 250 nM.
As for `CCc1nc2c(-c3nnc[nH]3)cc(-c3ccnc(N)c3F)cc2n1-c1ccnc2c(F)ccc(F)c12` (single isomer, unassigned) [Example 109, 4-[3-(5,8-difluoroquinolin-4-yl)-2-ethyl-7-(4H-1,2,4-triazol-3-yl)benzimidazol-5-yl]-3-fluoropyridin-2-amine], the IC50 came to 2600 nM.
Turning to `Cc1nc2c(-c3nnc[nH]3)cc(-c3ccnc(N)c3F)cc2n1-c1c(Cl)cnc2c(F)cccc12` [Example 92, 4-[3-(3-chloro-8-fluoroquinolin-4-yl)-2-methyl-7-(4H-1,2,4-triazol-3-yl)benzimidazol-5-yl]-3-fluoropyridin-2-amine], the IC50 stood at 51 nM.
The figure for `Fc1nccc(-c2cc(-c3nnc[nH]3)c3ncn(-c4cc(N5CCNCC5)nc5ccccc45)c3c2)c1F` [Example 164, 4-(6-(2,3-difluoropyridin-4-yl)-4-(4H-1,2,4-triazol-3-yl)-1H-benzo[d]imidazol-1-yl)-2-(piperazin-1-yl)quinoline] is 10 nM.
The figure for `Cc1nc2c(-c3nnc[nH]3)cc(-c3ccnc(C#N)c3)cc2n1-c1ccnc2cccc(F)c12` (single isomer, unassigned) [Example 132, 4-(1-(5-fluoroquinolin-4-yl)-2-methyl-4-(4H-1,2,4-triazol-3-yl)-1H-benzo[d]imidazol-6-yl)picolinonitrile] is 54 nM.
The figure for `Cc1nc2c(-c3nnc[nH]3)cc(-c3ccnc(N)c3)cc2n1-c1ccnc2cccc(F)c12` [Example 55, 4-[3-(5-fluoroquinolin-4-yl)-2-methyl-7-(4H-1,2,4-triazol-3-yl)benzimidazol-5-yl]pyridin-2-amine] is 19 nM.
Consider `Cc1nc2c(-c3nnc[nH]3)cc(-c3ccnc(F)c3)cc2n1-c1ccnc2c(F)ccc(F)c12` (single isomer, unassigned) [Example 133, 5,8-difluoro-4-(6-(2-fluoropyridin-4-yl)-2-methyl-4-(4H-1,2,4-triazol-3-yl)-1H-benzo[d]imidazol-1-yl)quinoline], for which the IC50 stood at 2 nM.
The figure for `Cc1nc2c(-c3nnc[nH]3)cc(-c3cc(N)ncc3F)cc2n1-c1ccnc2c(F)ccc(F)c12` [Example 76, 4-[3-(5,8-difluoroquinolin-4-yl)-2-methyl-7-(4H-1,2,4-triazol-3-yl)benzimidazol-5-yl]-5-fluoropyridin-2-amine] is 50 nM.
The figure for `N#Cc1cc(-c2cc(-c3nnc[nH]3)c3ncn(-c4cc(-c5cn[nH]c5)nc5ccccc45)c3c2)ccn1` [Example 166, 4-(1-(2-(1H-pyrazol-4-yl)quinolin-4-yl)-4-(4H-1,2,4-triazol-3-yl)-1H-benzo[d]imidazol-6-yl)picolinonitrile] is 70 nM; for `Cc1nc2c(-c3nnc[nH]3)cc(-c3ccnc(F)c3)cc2n1-c1ccnc2c(F)ccc(F)c12` (single isomer, unassigned) [Example 134, 5,8-difluoro-4-(6-(2-fluoropyridin-4-yl)-2-methyl-4-(4H-1,2,4-triazol-3-yl)-1H-benzo[d]imidazol-1-yl)quinoline] it is 400 nM; for `Nc1nccc(-c2cc(-c3nnc[nH]3)c3nc(C4CC4)n(-c4ccnc5c(F)ccc(F)c45)c3c2)c1F` [Example 81, 4-[2-cyclopropyl-3-(5,8-difluoroquinolin-4-yl)-7-(4H-1,2,4-triazol-3-yl)benzimidazol-5-yl]-3-fluoropyridin-2-amine] it is 15 nM.
The figure for `Cc1nnc(-c2cc(-c3ccnc(N)c3F)cc3c2nc(C)n3-c2ccnc3c(Cl)ccc(F)c23)[nH]1` [Example 98, 4-[3-(8-chloro-5-fluoroquinolin-4-yl)-2-methyl-7-(5-methyl-4H-1,2,4-triazol-3-yl)benzimidazol-5-yl]-3-fluoropyridin-2-amine] is 6 nM.
For the compound `Cc1nccc(-c2cc(-c3nnc[nH]3)c3nc(C)n(-c4ccnc5c(F)ccc(F)c45)c3c2)n1` [Example 156, 5,8-difluoro-4-(2-methyl-6-(2-methylpyrimidin-4-yl)-4-(4H-1,2,4-triazol-3-yl)-1H-benzo[d]imidazol-1-yl)quinoline], the IC50 is 12 nM.
Consider `Cc1nc2c(-c3nnc[nH]3)cc(-c3ccncc3)cc2n1-c1ccnc2c(Cl)cccc12` [Example 38, 8-chloro-4-[2-methyl-6-pyridin-4-yl-4-(4H-1,2,4-triazol-3-yl)benzimidazol-1-yl]quinoline], for which the IC50 was found to be 7 nM.
For `Cc1nc2c(-c3nnc[nH]3)cc(-c3ccnc(N)c3F)cc2n1-c1ccnc2c(Cl)cccc12` [Example 80, 4-(1-(8-chloroquinolin-4-yl)-2-methyl-4-(4H-1,2,4-triazol-3-yl)-1H-benzo[d]imidazol-6-yl)-3-fluoropyridin-2-amine], the IC50 is 2 nM.
Turning to `Cc1nc2c(-c3nnc[nH]3)cc(-c3ccncc3)cc2n1-c1ccnc2c(Cl)ccc(Cl)c12` [Example 29, 5,8-dichloro-4-[2-methyl-6-pyridin-4-yl-4-(4H-1,2,4-triazol-3-yl)benzimidazol-1-yl]quinoline], the IC50 was 6 nM.
The figure for `CCCc1nc2c(-c3nnc[nH]3)cc(-c3ccnc(N)c3)cc2n1-c1ccnc2c(F)ccc(F)c12` [Example 72, 4-[3-(5,8-difluoroquinolin-4-yl)-2-propyl-7-(4H-1,2,4-triazol-3-yl)benzimidazol-5-yl]pyridin-2-amine] is 10 nM.
For `Cc1nc2c(-c3nnc[nH]3)cc(-c3ccncc3)cc2n1-c1ccnc2c(F)ccc(F)c12` (single isomer, unassigned) [Example 140, 5,8-difluoro-4-(2-methyl-6-(pyridin-4-yl)-4-(4H-1,2,4-triazol-3-yl)-1H-benzo[d]imidazol-1-yl)quinoline], the IC50 turned out to be 540 nM.
The figure for `Cc1nc2c(C(N)=O)cc(-c3ccncc3)cc2n1-c1ccnc2c(Cl)cccc12` [Example 13, 1-(8-chloroquinolin-4-yl)-2-methyl-6-pyridin-4-ylbenzimidazole-4-carboxamide] is 15 nM; for `Cc1nc2c(-c3nnc[nH]3)cc(-c3ccnc(C#N)c3)cc2n1-c1ccnc2cccc(Cl)c12` (single isomer, unassigned) [Example 126, 4-(1-(5-chloroquinolin-4-yl)-2-methyl-4-(4H-1,2,4-triazol-3-yl)-1H-benzo[d]imidazol-6-yl)picolinonitrile] it is 780 nM.
The figure for `Cc1cccc2nccc(-n3c(C)nc4c(-c5nnc[nH]5)cc(-c5ccncc5)cc43)c12` [Example 31, 5-methyl-4-[2-methyl-6-pyridin-4-yl-4-(4H-1,2,4-triazol-3-yl)benzimidazol-1-yl]quinoline] is 89 nM.
The figure for `Cc1nc2c(-c3nnc[nH]3)cc(-c3ccnc(N)c3)cc2n1-c1ccnc2c(F)cccc12` [Example 61, 4-[3-(8-fluoroquinolin-4-yl)-2-methyl-7-(4H-1,2,4-triazol-3-yl)benzimidazol-5-yl]pyridin-2-amine] is 35 nM.
With `Cc1cccc2nccc(-n3c(C)nc4c(C(N)=O)cc(-c5ccncc5)cc43)c12` [Example 9, 2-methyl-1-(5-methylquinolin-4-yl)-6-pyridin-4-ylbenzimidazole-4-carboxamide], the IC50 is 950 nM.
Regarding `Cc1nc2c(-c3nnc[nH]3)cc(-c3ccnc(N)c3F)cc2n1-c1ccnc2c(F)cccc12` [Example 86, 3-fluoro-4-[3-(8-fluoroquinolin-4-yl)-2-methyl-7-(4H-1,2,4-triazol-3-yl)benzimidazol-5-yl]pyridin-2-amine], the IC50 was found to be 7 nM.
The figure for `Cc1cc(-n2c(C)nc3c(-c4nnc[nH]4)cc(-c4ccncc4)cc32)c2cccc(Cl)c2n1` [Example 32, 8-chloro-2-methyl-4-[2-methyl-6-pyridin-4-yl-4-(4H-1,2,4-triazol-3-yl)benzimidazol-1-yl]quinoline] is 6 nM; for `Cc1nc2c(-c3nnc[nH]3)cc(-c3ccnc(C#N)c3)cc2n1-c1ccnc2c(F)cccc12` (single isomer, unassigned) [Example 128, 4-(1-(8-fluoroquinolin-4-yl)-2-methyl-4-(4H-1,2,4-triazol-3-yl)-1H-benzo[d]imidazol-6-yl)picolinonitrile] it is 360 nM.
Regarding `Cc1nc2c(-c3nnc[nH]3)cc(-c3ccnc(N)c3F)cc2n1-c1ccnc2c(Cl)ccc(Cl)c12` [Example 161, 4-(1-(5,8-dichloroquinolin-4-yl)-2-methyl-4-(4H-1,2,4-triazol-3-yl)-1H-benzo[d]imidazol-6-yl)-3-fluoropyridin-2-amine], the IC50 amounted to 6 nM.
The figure for `Cc1cc(-n2c(C)nc3c(-c4nnc[nH]4)cc(-c4ccncc4)cc32)c2ccccc2n1` [Example 34, 2-methyl-4-[2-methyl-6-pyridin-4-yl-4-(4H-1,2,4-triazol-3-yl)benzimidazol-1-yl]quinoline] is 26 nM.
The figure for `Cc1nc2c(-c3nnc[nH]3)cc(-c3ccnc(C#N)c3)cc2n1-c1ccnc2c(Cl)cccc12` (single isomer, unassigned) [Example 129, 4-(1-(8-chloroquinolin-4-yl)-2-methyl-4-(4H-1,2,4-triazol-3-yl)-1H-benzo[d]imidazol-6-yl)picolinonitrile] is 3 nM.
